# Source: article PMC8443647, “Hybrid derivative of cathelicidin and human beta defensin-2 against Gram-positive bacteria: A novel approach for the treatment of bacterial keratitis” (Scientific Reports, 2021)
# Like-named read-outs stand apart in the source and are kept apart here. Peptide text beside a SMILES is read from it.
# How the values were obtained:
# S. aureus SH1000 = experiment: microbe, parasite or virus in culture; type: cell-based, Staphylococcus aureus
# Source text: (§1) A range of Gram-positive and Gram-negative laboratory- and clinical-strain bacteria were used for the experiments. These included laboratory-strain methicillin-sensitive S. aureus (MSSA; including SH1000 and ATCC SA29213), laboratory-strain MRSA (ATCC MRSA43300), clinical-strain MRSA (MRSA-OS; an IK isolate), laboratory-strain methicillin-sensitive Staphylococcus epidermidis (MSSE; ATCC SE12228), laboratory invasive-strain P. aeruginosa (PAO1-L), and clinical cytotoxic-strain P. aeruginosa (PA-OS; an IK isolate).
# (§2) In vitro antimicrobial efficacy of the antibiotics and designed HDPs was determined using an established MIC assay with broth microdilution method approved by the Clinical and Laboratory Standards Institute (CLSI)[64]. Briefly, the microorganisms were cultured on Tryptone Soya Agar (TSA) and incubated overnight for 18–21 h at 37 °C. Bacterial inoculums were subsequently prepared using the direct colony suspension method. Three to five bacterial colonies were obtained from the agar plate and inoculated into an Eppendorf tube containing 1 ml of cation-adjusted Muller-Hinton broth (caMHB), consisting of 20–25 mg/L calcium ions (Ca^2+) and 10–12.5 mg/L magnesium ions (Mg^2+). The bacterial suspension was adjusted to achieve a turbidity equivalent to 0.1 OD600 or 0.5 MacFarland, containing ~ 1.5 × 10^8 colony-forming unit (CFU)/ml, which was then further diluted in 1:150 in caMHB to reach a final bacterial concentration of ~ 1 × 10^6 colony forming units (CFU)/ml. Each treatment (peptide or antibiotic) was prepared in 1:2 serial dilution in 96-well polypropylene microplates (with a final treatment volume of 50 μl per well), followed by the addition of 50 μl of 1 × 10^6 CFU/ml bacteria into each well (with a final bacterial concentration of 5 × 10^5 CFU/ml).
# MRSA-OS = experiment: microbe, parasite or virus in culture; type: cell-based, Staphylococcus aureus; details: 24 h
# Source text: as §1, §2
# P. aeruginosa PA-OS = experiment: microbe, parasite or virus in culture; type: cell-based; details: 24 h
# Source text: as §1, §2
# [1] = test system: human corneal epithelial cells (HCE-2); experiment: cells; type: cell-based; details: 3 h
# Method: Cell viability and cytotoxicity of antibiotics and peptides were determined against human corneal epithelial cells (HCE-2, CRL-11135, ATCC, Manassas, Virginia, USA) using cell-counting-kit-8 (CCK-8) assay (Sigma Aldrich, Merck Life Science UK Limited, Dorset, UK) and lactate dehydrogenase (LDH) assay (ThermoFisher Scientific, UK), respectively, as per manufacturer’s guidelines. HCE-2 cells were cultured and seeded into a 96-well plate at a density of 7.5 × 10^3 cells/well and allowed to attach overnight and grew to 80–90% confluency in keratinocyte serum free medium (KSFM) supplemented with human recombinant epidermal growth factor, bovine pituitary extract, hydrocortisone, and insulin. Once the confluency reached 80–90%, the cells were incubated with treatment for 3 h before OD450 measurement was taken using BMG Clariostar microplate reader (BMG Labtech Ltd., Aylesbury, UK). Appropriate controls were used, including 0.1% Triton X-100 as positive control and KSFM as negative control. Cell viability was calculated using the following formula: [([…]) × 100; I = intensity] and cytotoxicity was calculated using the following formula: [((Itreatment – INC)/(IPC – INC)) × 100].
# P. aeruginosa PAO1-L = experiment: microbe, parasite or virus in culture; type: cell-based
# Source text: as §1, §2
# [2] = 0 mM NaCl, caMHB, 24 h, read-out: MIC
# [3] = 0 mM NaCl, caMHB, read-out: MIC
"MIC (S. aureus SH1000; SH1000, 24 h)",MIC (MRSA-OS; -OS),MIC (P. aeruginosa PA-OS; PA-OS),MIC (S. aureus SH1000; [2]),MIC (MRSA-OS; [3]),MIC (P. aeruginosa PAO1-L; [2]),"MIC (P. aeruginosa PAO1-L; PAO1, 24 h)","MIC (S. aureus SH1000; 150 mM NaCl, caMHB, 24 h, read-out: MIC)",MIC (P. aeruginosa PA-OS; [3]),Structure (SMILES),IC50 (concentration causing 50% inhibition of cell viability) [1],"Imax (%): percentage of inhibition of cell viability at 200 µg/ml ([1]; HCE-2, CCK-8 assay, 200 µg/ml, mean (SD))"
200 µg/mL,> 200 µg/mL,200 µg/mL,–,–,–,–,–,–,"CC[C@H](C)[C@H](NC(=O)[C@H](CCCNC(=N)N)NC(=O)[C@H](CCC(N)=O)NC(=O)[C@@H](NC(=O)[C@@H](NC(=O)[C@H](CCCNC(=N)N)NC(=O)[C@@H](N)CCCCN)[C@@H](C)CC)C(C)C)C(=O)N[C@@H](CCCCN)C(=O)N[C@@H](CC(=O)O)C(=O)N[C@@H](Cc1ccccc1)C(=O)N[C@@H](CC(C)C)C(=O)N[C@@H](CCCNC(=N)N)C(=O)N[C@@H](CCCCN)C(=O)N[C@@H](C)C(=O)N[C@@H](CS)C(=O)N[C@@H](CCCCN)C(=O)N[C@@H](CCCCN)C(=O)N1CCC[C@H]1C(=O)O [CaD21, KRIVQRIKDF LRKACKKP] (H-KRIVQRIKDFLRKACKKP-OH; N-terminus and C-terminus assumed)",> 200 µg/mL,–
> 200 µg/mL,> 200 µg/mL,–,> 92.3 µM,> 92.3 µM,> 92.3 µM,> 200 µg/mL,–,–,"C[C@H](NC(=O)[C@H](CCCCN)NC(=O)CNC(=O)[C@@H](N)CCCNC(=N)N)C(=O)N[C@@H](CCCCN)C(=O)N[C@@H](CS)C(=O)N[C@@H](CS)C(=O)N[C@@H](CCCCN)C(=O)N[C@@H](CCCNC(=N)N)C(=O)NCC(=O)N[C@@H](CCCNC(=N)N)C(=O)N[C@@H](CCCCN)C(=O)N[C@@H](CS)C(=O)N[C@@H](CS)C(=O)N[C@@H](CCCNC(=N)N)C(=O)N[C@@H](CCCNC(=N)N)C(=O)N[C@@H](CCCCN)C(=O)N[C@@H](CCCCN)C(=O)O [DD13, RGKAKCCKRG RKCCRRKK] (H-RGKAKCCKRGRKCCRRKK-OH; N-terminus and C-terminus assumed)",–,–
> 200 µg/mL,> 200 µg/mL,–,> 283.3 µM,> 283.3 µM,> 283.3 µM,> 200 µg/mL,–,–,"NCCCC[C@H](NC(=O)[C@H](CS)NC(=O)[C@H](CS)NC(=O)[C@@H](N)CCCCN)C(=O)N[C@@H](CCCCN)C(=O)N1CCC[C@H]1C(=O)O [BD2-6, KCCKKP] (H-KCCKKP-OH; N-terminus and C-terminus assumed)",–,–
> 200 µg/mL,> 200 µg/mL,–,> 115 µM,> 115 µM,> 115 µM,> 200 µg/mL,–,–,"C[C@H](NC(=O)[C@H](CCCCN)NC(=O)CNC(=O)[C@@H](N)CCCNC(=N)N)C(=O)N[C@@H](CCCCN)C(=O)N[C@@H](CS)C(=O)N[C@@H](CS)C(=O)N[C@@H](CCCCN)C(=O)NCC(=O)N[C@H](C(=O)N[C@@H](CCCCN)C(=O)N[C@@H](CS)C(=O)N[C@@H](CS)C(=O)N[C@@H](CCCCN)C(=O)N[C@@H](CCCCN)C(=O)N1CCC[C@H]1C(=O)O)[C@@H](C)O [DD12, RGKAKCCKGT KCCKKP] (H-RGKAKCCKGTKCCKKP-OH; N-terminus and C-terminus assumed)",–,–
–,> 200 µg/mL,200 µg/mL,43.5 µM,> 87.0 µM,87.0 µM,200 µg/mL,> 87.0 µM,87.0 µM,"CC[C@H](C)[C@H](NC(=O)[C@H](CCCNC(=N)N)NC(=O)[C@H](CCC(N)=O)NC(=O)[C@@H](NC(=O)[C@@H](NC(=O)[C@H](CCCNC(=N)N)NC(=O)[C@@H](N)CCCCN)[C@@H](C)CC)C(C)C)C(=O)N[C@@H](CCCCN)C(=O)N[C@@H](CC(=O)O)C(=O)N[C@@H](Cc1c[nH]c2ccccc12)C(=O)N[C@@H](CC(C)C)C(=O)N[C@@H](CCCNC(=N)N)C(=O)N[C@@H](CCCCN)C(=O)N[C@@H](CS)C(=O)N[C@@H](CS)C(=O)N[C@@H](CCCCN)C(=O)N[C@@H](CCCCN)C(=O)N1CCC[C@H]1C(=O)O [CaD22, KRIVQRIKDW LRKCCKKP] (H-KRIVQRIKDWLRKCCKKP-OH; N-terminus and C-terminus assumed)",> 200 µg/mL,34.3 (8.2) %
> 200 µg/mL,> 200 µg/mL,–,> 91.8 µM,> 91.8 µM,> 91.8 µM,> 200 µg/mL,–,–,"CC[C@H](C)[C@H](NC(=O)[C@@H](N)CCCNC(=N)N)C(=O)N[C@@H](CCCCN)C(=O)N[C@@H](CC(=O)O)C(=O)N[C@@H](Cc1ccccc1)C(=O)N[C@@H](CC(C)C)C(=O)N[C@@H](CCCNC(=N)N)C(=O)N[C@@H](CC(N)=O)C(=O)NCC(=O)N[C@@H](CCCNC(=N)N)C(=O)N[C@@H](CCCCN)C(=O)N[C@@H](CS)C(=O)N[C@@H](CS)C(=O)N[C@@H](CCCNC(=N)N)C(=O)N[C@@H](CCCNC(=N)N)C(=O)N[C@@H](CCCCN)C(=O)N[C@@H](CCCCN)C(=O)O [CaD3, RIKDFLRNGR KCCRRKK] (H-RIKDFLRNGRKCCRRKK-OH; N-terminus and C-terminus assumed)",–,–
> 200 µg/mL,> 200 µg/mL,–,–,–,–,200 µg/mL,–,–,"CC[C@H](C)[C@H](NC(=O)[C@H](CCCNC(=N)N)NC(=O)[C@H](CCC(N)=O)NC(=O)[C@@H](NC(=O)[C@@H](NC(=O)[C@H](CCCNC(=N)N)NC(=O)[C@@H](N)CCCCN)[C@@H](C)CC)C(C)C)C(=O)N[C@@H](CCCCN)C(=O)N[C@@H](CC(=O)O)C(=O)N[C@@H](Cc1ccccc1)C(=O)N[C@@H](CC(C)C)C(=O)N[C@@H](CCCNC(=N)N)C(=O)O [Ca12, KRIVQRIKDF LR] (H-KRIVQRIKDFLR-OH; N-terminus and C-terminus assumed)",–,–
> 200 µg/mL,> 200 µg/mL,–,–,–,–,> 200 µg/mL,–,–,"CC[C@H](C)[C@H](NC(=O)[C@H](CCCNC(=N)N)NC(=O)[C@H](CCC(N)=O)NC(=O)[C@@H](NC(=O)[C@@H](NC(=O)[C@H](CCCNC(=N)N)NC(=O)[C@@H](N)CCCCN)[C@@H](C)CC)C(C)C)C(=O)N[C@@H](CCCCN)C(=O)N[C@@H](CC(=O)O)C(=O)N[C@@H](Cc1ccccc1)C(=O)N[C@@H](CC(C)C)C(=O)N[C@@H](CCCNC(=N)N)C(=O)N[C@@H](CCCNC(=N)N)C(=O)NCC(=O)N[C@@H](CCCCN)C(=O)N[C@@H](C)C(=O)N[C@@H](CCCCN)C(=O)O [CaD1, KRIVQRIKDF LRRGKAK] (H-KRIVQRIKDFLRRGKAK-OH; N-terminus and C-terminus assumed)",–,–
> 200 µg/mL,> 200 µg/mL,–,> 154.9 µM,> 154.9 µM,> 154.9 µM,> 200 µg/mL,–,–,"N=C(N)NCCC[C@H](NC(=O)CNC(=O)[C@@H](N)CCCNC(=N)N)C(=O)N[C@@H](CCCCN)C(=O)N[C@@H](CS)C(=O)N[C@@H](CS)C(=O)N[C@@H](CCCNC(=N)N)C(=O)N[C@@H](CCCNC(=N)N)C(=O)N[C@@H](CCCCN)C(=O)N[C@@H](CCCCN)C(=O)O [BD3-10, RGRKCCRRKK] (H-RGRKCCRRKK-OH; N-terminus and C-terminus assumed)",–,–

Structure (SMILES),"MIC (S. aureus SH1000; SH1000, 24 h)",MIC (MRSA-OS; -OS),MIC (P. aeruginosa PA-OS; PA-OS),MIC (S. aureus SH1000; [2]),MIC (MRSA-OS; [3]),MIC (P. aeruginosa PAO1-L; [2]),"MIC (P. aeruginosa PAO1-L; PAO1, 24 h)","MIC (S. aureus SH1000; 150 mM NaCl, caMHB, 24 h, read-out: MIC)",MIC (P. aeruginosa PA-OS; [3]),IC50 (concentration causing 50% inhibition of cell viability) [1],"Imax (%): percentage of inhibition of cell viability at 200 µg/ml ([1]; HCE-2, CCK-8 assay, 200 µg/ml, mean (SD))"
"N=C(N)NCCC[C@H](NC(=O)CNC(=O)[C@@H](N)CCCNC(=N)N)C(=O)N[C@@H](CCCCN)C(=O)N[C@@H](CS)C(=O)N[C@@H](CS)C(=O)N[C@@H](CCCNC(=N)N)C(=O)N[C@@H](CCCNC(=N)N)C(=O)N[C@@H](CCCCN)C(=O)N[C@@H](CCCCN)C(=O)N[C@@H](CCCCN)C(=O)N[C@@H](CS)C(=O)N[C@@H](CS)C(=O)N[C@@H](CCCCN)C(=O)N[C@@H](CCCCN)C(=O)N1CCC[C@H]1C(=O)O [DD32, RGRKCCRRKK KCCKKP] (H-RGRKCCRRKKKCCKKP-OH; N-terminus and C-terminus assumed)",> 200 µg/mL,–,–,> 101 µM,> 101 µM,> 101 µM,> 200 µg/mL,–,–,–,–
